Patent publication US10675306B2, “Adrenomedullin therapy to improve fetal implantation” (The University of North Carolina at Chapel Hill, priority 2015, dated 2020)
Entries after “also recorded” stand apart in the source; their conditions may differ. Positions of bridges follow the written chain, without caps; N, C: chain ends. No end group written: not given here.

Columns and labels:
Type in all cases: in vivo
wild-type mice [1] = test: Pinopode formation and size in uteri treated for 30 min (scanning electron micrographs); conditions: AM 150 pmol, vs vehicle
Protocol: A, Scanning electron micrographs of pinopodes in wild type uteri treated with vehicle, AM, or AM+AM(24-50) for 30 minutes. Scale bars, 5 μm. B-D, Quantitation of pinopodes per field (B), size (C), and percent area of field (D). n=3 animals, n>4 fields per animal. ***p<0.001, unpaired t test.
The effect of AM on pinopode formation and size was studied. Wild-type mice were treated with vehicle, AM (150 pmol), or AM (150 pmol)+AM(24-50) (2 nmol) for 30 min and the amount and size of pinopodes was quantitated (FIGS. 3A-3D).

BalbC mice = test: Blastocyst transfer after intrauterine injection: number and spacing of viable implantation sites; conditions: AM 150 pmol into lumen of each uterine horn, day 2.5 of pseudopregnancy, evaluated three days post-transfer, vs vehicle
Source text: A, Images of e6.5 embryos within uteri treated with vehicle, AM, or AM+AM(24-50) prior to transfer of 8 blastocysts per horn. Arrowheads indicate viable implantation sites as determined by uptake of Evans blue dye. Scale bar, 1 cm. B, Quantitation of viable implant sites per horn. ns, not significant. *p<0.05, Mann-Whitney test. C, Illustration of quantitation method for spacing of e6.5 embryos within uterine horns. SD, standard deviation. D, Quantitation of spacing using method depicted in (C). *p<0.05, unpaired t test.
It was hypothesized that administration of AM, an endocrine factor critical for a healthy pregnancy, to female mice would improve uterine receptivity and implantation rates. […] Dams were euthanized three days later, and the number and spacing of the viable implantation sites were evaluated.
Using this conceptually simple but elegant in vivo experiment, it was concluded that delivery of AM directly into the uterine lumen prior to the establishment of pregnancy promotes blastocyst implantation. This conclusion was arrived at by quantitating the number and spacing of viable implantation sites in uterine horns that were treated with either vehicle or AM prior to blastocyst transfer.

wild-type mice [2] = test: Rate of pinopode formation throughout a treatment time course; conditions: AM 150 pmol, days 2.5-3.5 of pseudopregnancy, vs vehicle
Protocol: A, Scanning electron micrographs of vehicle- and AM-treated uteri throughout treatment time course. Scale bars, 1 μm. B, Quantitation of pinopodes per field throughout treatment time course. *p<0.05 at indicated time point, unpaired t test.
Further studies were performed to measure the effect of AM (150 pmol) on the rate of pinopode formation. The number of pinopodes was quantitated throughout a time course of AM treatment in wild-type mice (FIGS. 4A-4B).

## adrenomedullin (YRQSMNNFGGLRSFGCRFGTCTVQKLAHQIYQFTDKDKDNVAPRSKISPQGY; disulfide 16-21 (inferred); ends not checked; listed as Homo sapiens) [AM, peptide vasodilator]
wild-type mice [1]
  pinopode formation (pinopodes per field): promotes pinopode formation
  pinopode size: promotes pinopode formation and size
BalbC mice; 8 blastocysts per horn 5-10 min later
  number of viable implantation sites per horn: improves implantation success; also recorded: significantly more embryo implantation sites; also recorded: significantly more viable implantation sites
BalbC mice; 8 blastocysts per horn
  spacing of viable implantation sites: improves implantation success and spacing; also recorded: evenly distributed throughout the length of the horn; also recorded: more evenly distributed throughout the length of the horn
wild-type mice [2]
  rate of pinopode formation (pinopodes per field over time course): accelerates pinopode formation
